27 compounds from ChEMBL document CHEMBL3864192, “Discovery and Optimization of Two Eis Inhibitor Families as Kanamycin Adjuvants against Drug-Resistant M. tuberculosis” (ACS Med Chem Lett, 2016) can be followed below.

For one experiment, the target named is T1, N-acetyltransferase Eis (Mycobacterium tuberculosis (strain ATCC 25618 / H37Rv), UniProt P9WFK7).
T1 sequence (P9WFK7 whole entry): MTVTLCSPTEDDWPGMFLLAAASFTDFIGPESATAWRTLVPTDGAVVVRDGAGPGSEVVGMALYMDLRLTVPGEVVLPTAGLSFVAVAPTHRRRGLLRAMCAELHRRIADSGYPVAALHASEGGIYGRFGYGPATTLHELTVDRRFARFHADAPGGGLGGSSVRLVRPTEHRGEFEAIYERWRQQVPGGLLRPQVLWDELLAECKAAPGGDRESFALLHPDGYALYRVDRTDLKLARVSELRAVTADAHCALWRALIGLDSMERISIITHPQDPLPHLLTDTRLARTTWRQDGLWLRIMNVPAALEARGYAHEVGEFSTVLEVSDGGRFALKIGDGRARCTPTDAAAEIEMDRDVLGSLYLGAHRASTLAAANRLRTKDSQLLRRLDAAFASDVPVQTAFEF
Nature of the experiment: Inhibition of Mycobacterium tuberculosis H37Rv Eis expressed in Escherichia coli BL21(DE3) using Acetyl-CoA as substrate preincubated for 10 mins followed by substrate addition measured every 30 sec for 10 mins.

For experiment [1], the system named is Mycobacterium tuberculosis. As to the kind of experiment: Potentiation of kanamycin induced-antimicrobial activity against Mycobacterium tuberculosis H37Rv at 100 uM preincubated for 24 hrs followed by kanamycin addition measured after 6 days by Alamar blue assay. In kind it is functional.
Experiment [2] relates to Mycobacterium tuberculosis. Nature of the experiment: Inhibition of Mycobacterium tuberculosis K204 Eis assessed as kanamycin MIC at 100 uM preincubated for 24 hrs followed by kanamycin addition measured after 6 days by Alamar blue assay (Rvb >= 10 ug/ml). For orientation: Resazurin is reduced to fluorescent resorufin, in cell work by metabolically active cells.
Experiment [3] has as its target T2, N-acetyltransferase Eis (Mycobacterium tuberculosis (strain ATCC 25618 / H37Rv)) (UniProt P9WFK7).
T2 sequence (whole entry): T1 sequence (P9WFK7 whole entry)
Nature of the experiment: Inhibition of Mycobacterium tuberculosis H37Rv Eis expressed in Escherichia coli BL21(DE3) at 20 uM using Acetyl-CoA as substrate after 5 mins by HTS assay.

The subject of experiment [4] is Mycobacterium tuberculosis. Nature of the experiment: Potentiation of kanamycin induced-antimicrobial activity against Mycobacterium tuberculosis H37Rv at 8.9 uM preincubated for 24 hrs followed by kanamycin addition measured after 6 days by Alamar blue assay. In kind it is functional.
Experiment [5] concerns Mycobacterium tuberculosis. Nature of the experiment: Inhibition of Mycobacterium tuberculosis K204 Eis assessed as kanamycin MIC at 8.9 uM preincubated for 24 hrs followed by kanamycin addition measured after 6 days by Alamar blue assay (Rvb >= 10 ug/ml).
Experiment [6] deals with Mycobacterium tuberculosis. Nature of the experiment: Potentiation of kanamycin induced-antimicrobial activity against Mycobacterium tuberculosis H37Rv at 32.6 uM preincubated for 24 hrs followed by kanamycin addition measured after 6 days by Alamar blue assay. The class given is functional.
The test system of experiment [7] is Mycobacterium tuberculosis. Nature of the experiment: Inhibition of Mycobacterium tuberculosis K204 Eis assessed as kanamycin MIC at 32.6 uM preincubated for 24 hrs followed by kanamycin addition measured after 6 days by Alamar blue assay (Rvb >= 10 ug/ml).
Experiment [8] concerns Mycobacterium tuberculosis. As to the kind of experiment: Potentiation of kanamycin induced-antimicrobial activity against Mycobacterium tuberculosis H37Rv at 15.5 uM preincubated for 24 hrs followed by kanamycin addition measured after 6 days by Alamar blue assay. In kind it is functional.
Experiment [9] deals with Mycobacterium tuberculosis. Nature of the experiment: Inhibition of Mycobacterium tuberculosis K204 Eis assessed as kanamycin MIC at 15.5 uM preincubated for 24 hrs followed by kanamycin addition measured after 6 days by Alamar blue assay (Rvb >= 10 ug/ml).
The test system of experiment [10] is Mycobacterium tuberculosis. As to the kind of experiment: Inhibition of Mycobacterium tuberculosis K204 Eis assessed as kanamycin MIC at 64.5 uM preincubated for 24 hrs followed by kanamycin addition measured after 6 days by Alamar blue assay (Rvb >= 10 ug/ml).
Experiment [11] concerns Mycobacterium tuberculosis. Nature of the experiment: Potentiation of kanamycin induced-antimicrobial activity against Mycobacterium tuberculosis H37Rv at 64.5 uM preincubated for 24 hrs followed by kanamycin addition measured after 6 days by Alamar blue assay. The class given is functional.
Experiment [12] concerns Mycobacterium tuberculosis. Nature of the experiment: Potentiation of kanamycin induced-antimicrobial activity against Mycobacterium tuberculosis H37Rv at 52.6 uM preincubated for 24 hrs followed by kanamycin addition measured after 6 days by Alamar blue assay. In kind it is functional.
Experiment [13] deals with Mycobacterium tuberculosis. Nature of the experiment: Inhibition of Mycobacterium tuberculosis K204 Eis assessed as kanamycin MIC at 52.6 uM preincubated for 24 hrs followed by kanamycin addition measured after 6 days by Alamar blue assay (Rvb >= 10 ug/ml).
Experiment [14] concerns Mycobacterium tuberculosis. Nature of the experiment: Potentiation of kanamycin induced-antimicrobial activity against Mycobacterium tuberculosis H37Rv at 25.1 uM preincubated for 24 hrs followed by kanamycin addition measured after 6 days by Alamar blue assay. In kind it is functional.
Experiment [15] deals with Mycobacterium tuberculosis. As to the kind of experiment: Inhibition of Mycobacterium tuberculosis K204 Eis assessed as kanamycin MIC at 25.1 uM preincubated for 24 hrs followed by kanamycin addition measured after 6 days by Alamar blue assay (Rvb >= 10 ug/ml).
The subject of experiment [16] is Mycobacterium tuberculosis. As to the kind of experiment: Potentiation of kanamycin induced-antimicrobial activity against Mycobacterium tuberculosis H37Rv at 29.7 uM preincubated for 24 hrs followed by kanamycin addition measured after 6 days by Alamar blue assay. The class given is functional.
Experiment [17] relates to Mycobacterium tuberculosis. Nature of the experiment: Inhibition of Mycobacterium tuberculosis K204 Eis assessed as kanamycin MIC at 29.7 uM preincubated for 24 hrs followed by kanamycin addition measured after 6 days by Alamar blue assay (Rvb >= 10 ug/ml).
For experiment [18], the system named is Mycobacterium tuberculosis. Nature of the experiment: Potentiation of kanamycin induced-antimicrobial activity against Mycobacterium tuberculosis H37Rv at 54.2 uM preincubated for 24 hrs followed by kanamycin addition measured after 6 days by Alamar blue assay. The class given is functional.
The subject of experiment [19] is Mycobacterium tuberculosis. As to the kind of experiment: Inhibition of Mycobacterium tuberculosis K204 Eis assessed as kanamycin MIC at 54.2 uM preincubated for 24 hrs followed by kanamycin addition measured after 6 days by Alamar blue assay (Rvb >= 10 ug/ml).
For experiment [20], the system named is Mycobacterium tuberculosis. Nature of the experiment: Potentiation of kanamycin induced-antimicrobial activity against Mycobacterium tuberculosis H37Rv at 1.5 uM preincubated for 24 hrs followed by kanamycin addition measured after 6 days by Alamar blue assay. In kind it is functional.
Experiment [21] relates to Mycobacterium tuberculosis. Nature of the experiment: Inhibition of Mycobacterium tuberculosis K204 Eis assessed as kanamycin MIC at 1.5 uM preincubated for 24 hrs followed by kanamycin addition measured after 6 days by Alamar blue assay (Rvb >= 10 ug/ml).
For experiment [22], the system named is Mycobacterium tuberculosis. Nature of the experiment: Inhibition of Mycobacterium tuberculosis K204 Eis assessed as kanamycin MIC at 33.9 uM preincubated for 24 hrs followed by kanamycin addition measured after 6 days by Alamar blue assay (Rvb >= 10 ug/ml).
Experiment [23] relates to Mycobacterium tuberculosis. As to the kind of experiment: Potentiation of kanamycin induced-antimicrobial activity against Mycobacterium tuberculosis H37Rv at 33.9 uM preincubated for 24 hrs followed by kanamycin addition measured after 6 days by Alamar blue assay. In kind it is functional.

SMILES strings stand for the structures. pIC50: −log10 of the molar value. Calls of active or inactive are those of the source. The rule behind the calls is not given here.

The term pIC50 denotes the IC50 on a negative log10 scale, so that one unit is a factor of ten. `COC(=O)c1cc2occc2n1CC(=O)C(C)(C)C` showed a pIC50 on N-acetyltransferase Eis of under 3.70. For the same compound, the MIC was at most 1.25 µg/mL in [1] and over 10 µg/mL in experiment [2].

Consider `Cc1ccc(C(=O)CN2C(=O)C3(OCCO3)c3ccccc32)cc1`, for which the MIC was at most 1.25 µg/mL in [1] and 5 to 10 µg/mL in [2].

Turning to `COC(=O)c1cc2occc2n1CC(=O)c1ccc2ccccc2c1`, the MIC was at most 1.25 µg/mL in [1] and 10 µg/mL in experiment [2].

With `O=C(CN1C(=O)C2(OCCO2)c2ccccc21)c1ccc2ccccc2c1`, the MIC in experiment [1] was at most 1.25 µg/mL; in experiment [2], 10 µg/mL.

In the case of `O=C(CN1C(=O)C2(OCCO2)c2ccccc21)c1ccc(F)cc1`, the inhibition entry in [3] is “Active”. In addition, at N-acetyltransferase Eis, the pIC50 was 7.05. For the same compound, the MIC in experiment [4] was at most 1.25 µg/mL; in experiment [5] it was 5 µg/mL.

Take `CCC(=O)CN1C(=O)C2(OCCO2)c2ccccc21`: the pIC50 against N-acetyltransferase Eis was under 3.70. The MIC was at most 1.25 µg/mL in [1] and over 10 µg/mL in experiment [2].

For `O=C(CN1C(=O)C2(OCCO2)c2ccccc21)c1ccccc1`, the pIC50 against N-acetyltransferase Eis was 6.48. Further, the MIC in experiment [6] was at most 1.25 µg/mL; in experiment [7] it was 5 µg/mL.

Consider `O=C(CN1C(=O)C2(OCCO2)c2ccccc21)c1ccc(Br)cc1`, for which the inhibition entry in experiment [3] is “Active”. This compound gave a pIC50 on N-acetyltransferase Eis of under 3.70. Moreover, the MIC in [1] is at most 1.25 µg/mL; in experiment [2] it was over 10 µg/mL.

As for `COC(=O)c1cc2occc2n1CC(=O)c1cccc(F)c1`, the values for the MIC in experiment [8] and in experiment [9] were at most 1.25 µg/mL and 10 µg/mL, respectively.

Consider `O=C(CN1C(=O)C2(OCCO2)c2ccccc21)c1cccc([N+](=O)[O-])c1`, for which the MIC was at most 1.25 µg/mL in [1] and 5 to 10 µg/mL in experiment [2].

For `COC(=O)c1cc2occc2n1CC(=O)c1ccc(Cl)cc1`, the results for the MIC in experiment [10] and in experiment [11] were over 10 µg/mL and at most 1.25 µg/mL, respectively.

Turning to `COC(=O)c1cc2occc2n1CC(=O)c1cccc(Br)c1`, the pIC50 against N-acetyltransferase Eis was 6.30. Further, the figures for the MIC in experiment [12] and in [13] were at most 1.25 µg/mL and over 10 µg/mL, respectively.

`COC(=O)c1cc2occc2n1CC(=O)c1cccc(OC)c1`: the pIC50 at N-acetyltransferase Eis was under 3.70. Besides, the MIC in experiment [1] was at most 1.25 µg/mL; in experiment [2], over 10 µg/mL.

For `COC(=O)c1cc2occc2n1CC(=O)c1cccc(Cl)c1`, the MIC in experiment [14] was at most 1.25 µg/mL; in [15], over 10 µg/mL.

Compound `CC(C)(C)C(=O)CN1C(=O)C2(OCCO2)c2ccccc21` showed a pIC50 against N-acetyltransferase Eis of under 3.70. Further, the MIC in experiment [1] is at most 1.25 µg/mL; in experiment [2] it was over 10 µg/mL.

For the compound `COC(=O)c1cc2occc2n1CC(=O)c1ccc(Br)cc1`, the MIC in experiment [1] is at most 1.25 µg/mL; in [2], over 10 µg/mL.

Turning to `O=C(CN1C(=O)C2(OCCO2)c2ccccc21)c1ccccc1F`, the MIC is at most 1.25 µg/mL in experiment [1] and 10 µg/mL in experiment [2].

Regarding `COC(=O)c1cc2occc2n1CC(=O)c1ccccc1`, the inhibition result in [3] was “Active”. In addition, the MIC is at most 1.25 µg/mL in [1] and 5 to 10 µg/mL in experiment [2].

Take `O=C(CN1C(=O)C2(OCCO2)c2ccccc21)c1ccc(Cl)cc1`: the inhibition entry in experiment [3] is “Active”. For the same compound, the pIC50 against N-acetyltransferase Eis is 5.66. The MIC in experiment [1] is at most 1.25 µg/mL; in [2] it was 5 to 10 µg/mL.

`CCC(=O)Cn1c(C(=O)OC)cc2occc21` had a negative logarithm of the IC50 (pIC50) against N-acetyltransferase Eis of under 3.70. Moreover, the MIC in experiment [1] was at most 1.25 µg/mL; in experiment [2], over 10 µg/mL.

For the compound `COC(=O)c1cc2occc2n1CC(=O)c1ccccc1F`, the figures for the MIC in [1] and in [2] were at most 1.25 µg/mL and 10 µg/mL, respectively.

As for `COC(=O)c1cc2occc2n1CC(=O)c1ccc(C)cc1`, the MIC in experiment [1] was at most 1.25 µg/mL; in [2] it was 5 to 10 µg/mL.

For `O=C(CN1C(=O)C2(OCCO2)c2ccccc21)c1cccc(F)c1`, the MIC in [16] was at most 1.25 µg/mL; in [17] it was 2.5 to 5 µg/mL.

With `O=C(CN1C(=O)C2(OCCO2)c2ccccc21)c1cccc(Br)c1`, the MIC in experiment [18] is at most 1.25 µg/mL; in [19], 5 to 10 µg/mL.

Regarding `O=C(CN1C(=O)C2(OCCO2)c2ccccc21)c1cccc(Cl)c1`, the figures for the MIC in experiment [20] and in experiment [21] were at most 1.25 µg/mL and over 10 µg/mL, respectively.

Regarding `COc1cccc(C(=O)CN2C(=O)C3(OCCO3)c3ccccc32)c1`, the MIC was at most 1.25 µg/mL in experiment [1] and over 10 µg/mL in [2].

On N-acetyltransferase Eis, `COC(=O)c1cc2occc2n1CC(=O)c1ccc(F)cc1` showed a pIC50 of 6.52. The figures for the MIC in [22] and in experiment [23] were 10 µg/mL and at most 1.25 µg/mL, respectively.
